Target: T1, hT1R1/hT1R3 umami receptor (Homo sapiens, UniProt Q7RTX0+Q7RTX1)
T1 construct: expressed in transfected cells; host or cells: HEK293 derivative stably expressing Gα15, clone I-17, expression induced with mifepristone
T1 sequence (Q7RTX1 21-841): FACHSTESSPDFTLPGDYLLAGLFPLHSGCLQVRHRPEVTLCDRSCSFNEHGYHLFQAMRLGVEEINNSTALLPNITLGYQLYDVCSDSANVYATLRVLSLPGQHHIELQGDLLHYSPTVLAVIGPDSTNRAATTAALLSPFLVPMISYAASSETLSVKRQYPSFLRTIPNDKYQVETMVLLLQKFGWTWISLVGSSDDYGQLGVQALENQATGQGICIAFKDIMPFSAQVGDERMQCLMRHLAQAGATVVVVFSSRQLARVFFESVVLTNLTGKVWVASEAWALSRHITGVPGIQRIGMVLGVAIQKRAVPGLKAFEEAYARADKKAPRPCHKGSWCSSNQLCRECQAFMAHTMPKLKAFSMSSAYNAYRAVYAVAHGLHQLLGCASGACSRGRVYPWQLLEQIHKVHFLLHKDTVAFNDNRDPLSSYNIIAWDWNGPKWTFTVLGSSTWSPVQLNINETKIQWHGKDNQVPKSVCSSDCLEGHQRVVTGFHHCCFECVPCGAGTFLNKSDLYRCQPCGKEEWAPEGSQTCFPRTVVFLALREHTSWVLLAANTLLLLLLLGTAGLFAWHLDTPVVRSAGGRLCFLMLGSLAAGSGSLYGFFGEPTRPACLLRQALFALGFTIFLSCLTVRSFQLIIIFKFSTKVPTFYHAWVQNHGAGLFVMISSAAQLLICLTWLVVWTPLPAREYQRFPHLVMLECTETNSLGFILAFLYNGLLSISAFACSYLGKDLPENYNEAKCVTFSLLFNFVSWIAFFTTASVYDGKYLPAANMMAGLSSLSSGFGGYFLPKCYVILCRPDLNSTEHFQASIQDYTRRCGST
T1 sequence (Q7RTX0 21-852): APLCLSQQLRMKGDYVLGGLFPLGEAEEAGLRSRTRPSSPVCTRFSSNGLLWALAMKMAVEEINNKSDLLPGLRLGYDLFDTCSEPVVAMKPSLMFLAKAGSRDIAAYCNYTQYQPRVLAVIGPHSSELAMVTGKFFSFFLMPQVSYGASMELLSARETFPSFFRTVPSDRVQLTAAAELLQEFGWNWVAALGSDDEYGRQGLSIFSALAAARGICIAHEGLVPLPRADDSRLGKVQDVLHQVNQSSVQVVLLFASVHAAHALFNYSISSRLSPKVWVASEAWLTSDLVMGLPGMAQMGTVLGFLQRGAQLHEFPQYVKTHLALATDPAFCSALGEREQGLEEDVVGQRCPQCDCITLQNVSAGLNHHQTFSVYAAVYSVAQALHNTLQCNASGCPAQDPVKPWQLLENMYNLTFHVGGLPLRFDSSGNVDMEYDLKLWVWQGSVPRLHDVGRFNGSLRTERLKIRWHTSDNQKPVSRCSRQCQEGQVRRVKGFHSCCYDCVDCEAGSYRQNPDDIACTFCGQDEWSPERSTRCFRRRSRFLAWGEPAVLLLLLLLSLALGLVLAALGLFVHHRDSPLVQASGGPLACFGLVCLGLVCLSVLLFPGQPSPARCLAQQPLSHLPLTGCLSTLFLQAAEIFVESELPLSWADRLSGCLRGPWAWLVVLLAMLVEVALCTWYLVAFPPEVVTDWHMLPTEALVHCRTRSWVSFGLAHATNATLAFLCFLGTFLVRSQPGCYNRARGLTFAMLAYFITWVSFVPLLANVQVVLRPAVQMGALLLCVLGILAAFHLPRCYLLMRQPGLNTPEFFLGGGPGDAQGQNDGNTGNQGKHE
Test: Umami taste enhancement activity assay (EC50 ratio vs. MSG)
Type: cell-based
Procedure: A series of measurements of the dose response is run in solutions comprising MSG alone, then a second dose response is run with MSG in combination with predetermined amounts of a candidate compound of Formula (I) at the same time.
Typical compound concentrations tested were 30 μM, 10 μM, 3 μM, 1 μM, 0.3 μM, 0.1 μM and 0.03 μM. The relative efficacy of compounds of Formula (I) at enhancing the receptor was determined by calculating the magnitude of a shift in the EC50 for monosodium glutamate. Enhancement was defined as a ratio (EC50R) corresponding to the EC50 of monosodium glutamate, determined in the absence of the test compound, divided by the EC50 of monosodium glutamate, determined in the presence of the test compound.
Stated alternatively, “EC50 ratio” as compared to MSG is calculated based on the following definitions: EC50 Ratio vs. MSG=EC50 (MSG)/EC50(MSG+[Compound]) • wherein “[compound]” refers to the concentration of the compound of Formula (I) used to elicit (or enhance or potentiate) the MSG dose response.

With `Cc1ccc(CCNC(=O)c2occc2C)cc1` [Example 120, 3-methyl-N-(p-tolylethyl)furan-2-carboxamide] the “EC50 ratio (enhanced the effectiveness of monosodium glutamate)” value (compound present at 1 μM) was 3.3.

With `COc1cccc(C(=O)N[C@H]2CCCc3ccccc32)c1O` [Example A93, (S)-2-hydroxy-3-methoxy-N-(1,2,3,4-tetrahydronaphthalen-1-yl)benzamide] the “Ec50 ratio (vs. MSG)” value (Table A, compound @ 1 uM) was 5.7.

For `CC1CCCC(NC(=O)c2ccc3c(c2)OCO3)C1C` (stereo not shown) [Example 4, N-(2,3-dimethylcyclohexyl)benzo[d][1,3]dioxole-5-carboxamide], the “EC50 ratio (enhanced the effectiveness of monosodium glutamate)” value (compound present at 1 μM) was 8.4.

In the case of `COC(=O)[C@@H](CC(C)C)NC(=O)c1ccc(OC)c(Cl)c1` [Example 62, (R)-methyl 2-(3-chloro-4-methoxybenzamido)-4-methylpentanoate], the “EC50 ratio (enhanced the effectiveness of monosodium glutamate)” value (compound present at 0.01 μM) is reported as 13.18.

For `CCOc1ccc(NC(=O)NC2CCCCC2C)cc1` (stereo not shown) [Example C10, 1-(4-ethoxyphenyl)-3-(2-methylcyclohexyl)urea], the “Ec50 ratio (vs MSG)” value (Table C, compound Con. 0.3 uM) was 2.1.

With `CCCC(CCC)NC(=O)c1ccc2c(c1)OC(F)(F)O2` [Example 22, 2,2-difluoro-N-(heptan-4-yl)benzo[d][1,3]dioxole-5-carboxamide] the “EC50 ratio (enhanced the effectiveness of monosodium glutamate)” value (compound present at 1 μM) was 2.87.

With `CCCC(COC(C)=O)NC(=O)c1ccc2c(c1)OCO2` (stereo not shown) [Example 14, 2-(benzo[d][1,3]dioxole-6-carboxamido)pentyl Acetate] the “EC50 ratio (enhanced the effectiveness of monosodium glutamate)” value (compound present at 3 μM) was 4.1.

For `CCC(CC)NC(=O)c1ccc(OC)c(Cl)c1` [Example 61, 3-chloro-4-methoxy-N-(pentan-3-yl)benzamide], the “EC50 ratio (enhanced the effectiveness of monosodium glutamate)” value (compound present at 0.3 μM) was 6.28.

With `CCCC(CCC)NC(=O)Nc1ccc(OC)cc1OC` [Example 159, 1-(2,4-dimethoxyphenyl)-3-(heptan-4-yl)urea] the “EC50 ratio (enhanced the effectiveness of monosodium glutamate)” value (compound present at 0.3 μM) was 7.61.

With `COc1ccc(CNC(=O)c2ccnn2C)c(OC)c1` [Example 110, 2-Methyl-2H-pyrazole-3-carboxylic Acid 2,4-dimethoxy-benzylamide] the “EC50 ratio (enhanced the effectiveness of monosodium glutamate)” value (compound present at 3 μM) was 7.9.

With `COc1ccc(CNC(=O)c2sccc2C)c(OC)c1` [Example 108, 3-Methyl-thiophene-2-carboxylic Acid 2,4-dimethoxy-benzylamide] the “EC50 ratio (enhanced the effectiveness of monosodium glutamate)” value (compound present at 3 μM) was 5.8.

In the case of `CCCC(CCC)NC(=O)/C=C/c1cccs1` [Example D6, N-(1-Propyl-butyl)-3-thiophen-2-yl-acrylamide], the “Ec50 ratio (vs. MSG)” value (Table D, compound @ 1 uM) is reported as 6.3.

In the case of `Cc1ccc(C(=O)NC2CCCc3ccccc32)s1` (stereo not shown) [Example A39, 5-Methyl-thiophene-2-carboxylic acid (1,2,3,4-tetrahydro-naphthalen-1-yl)-amide], the “Ec50 ratio (vs. MSG)” value (Table A, compound @ 1 uM) is reported as 2.3.

For `COc1ccc(C(=O)N[C@H](C)c2ccccc2)cc1Cl` [Example 63, (R)-3-chloro-4-methoxy-N-(1-phenylethyl)benzamide], the “EC50 ratio (enhanced the effectiveness of monosodium glutamate)” value (compound present at 0.3 μM) was 2.7.

For `CCCC(CCC)NC(=O)c1cc2ccccc2o1` [Example 25, Benzofuran-2-carboxylic(1-propylbutyl)amide], the “EC50 ratio (enhanced the effectiveness of monosodium glutamate)” value (compound present at 0.3 μM) was 2.6.

With `O=C(NC1CCCc2ccccc21)c1ccc2c(c1)OCO2` (stereo not shown) [Example 7, N-(1,2,3,4-tetrahydronaphthalen-1-yl)benzo[d][1,3]dioxole-5-carboxamide] the “EC50 ratio (enhanced the effectiveness of monosodium glutamate)” value (compound present at 0.3 μM) was 7.8.

For `CCCC(CCC)NC(=O)c1ccc2c(c1)OC(C(C)C)O2` (stereo not shown) [Example 21, N-(heptan-4-yl)-2-isopropylbenzo[d][1,3]dioxole-5-carboxamide], the “EC50 ratio (enhanced the effectiveness of monosodium glutamate)” value (compound present at 3 μM) was 2.2.

With `CCOc1ccc(/C=C/C(=O)NC(C)CC)cc1` (stereo not shown) [Example D13, (E)-N-sec-butyl-3-(4-ethoxyphenyl)acrylamide] the “Ec50 ratio (vs. MSG)” value (Table D, compound @ 0.3 uM) was 2.7.

With `CCCC(CCC)NC(=O)c1cc2cc(OC)ccc2o1` [Example A10, N-(heptan-4-yl)-5-methoxybenzofuran-2-carboxamide] the “Ec50 ratio (vs. MSG)” value (Table A, compound @ 1 uM) was 4.51.

With `CCC(COC)NC(=O)c1cc2cc(Cl)ccc2o1` (stereo not shown) [Example A11, 5-chloro-N-(1-methoxybutan-2-yl)benzofuran-2-carboxamide] the “Ec50 ratio (vs. MSG)” value (Table A, compound @ 0.3 uM) was 6.5.

For `CCOc1ccc(NC(=O)NCCc2ccccn2)cc1` [Example 160, 1-(4-ethoxyphenyl)-3-(2-(pyridine-2-yl)ethyl)urea], the “EC50 ratio (enhanced the effectiveness of monosodium glutamate)” value (compound present at 1 μM) was 4.2.

With `O=C(NCc1ccc(OC(F)(F)F)cc1)c1ccsc1` [Example 107, Thiophene-3-carboxylic acid 4-trifluoromethoxy-benzylamide] the “EC50 ratio (enhanced the effectiveness of monosodium glutamate)” value (compound present at 3 μM) was 8.5.

With `O=C(NC1CCc2ccccc21)c1ccc2c(c1)OCO2` (stereo not shown) [Example 118, Benzo[1,3]dioxole-5-carboxylic Acid indan-1-ylamide] the “EC50 ratio (enhanced the effectiveness of monosodium glutamate)” value (compound present at 0.3 μM) was 5.33.

With `COc1cccc(C(=O)NC2CCCc3ccccc32)c1O` (stereo not shown) [Example A87, 2-hydroxy-3-methoxy-N-(1,2,3,4-tetrahydronaphthalen-1-yl)benzamide] the “Ec50 ratio (vs. MSG)” value (Table A, compound @ 1 uM) was 3.8.

With `Cc1cc(C(=O)NC(C)CCc2ccccc2)ccc1O` (stereo not shown) [Example 111, 4-Hydroxy-3-methyl-N-(1-methyl-3-phenyl-propyl)-benzamide] the “EC50 ratio (enhanced the effectiveness of monosodium glutamate)” value (compound present at 0.3 μM) was 7.

For `COc1ccc(CNC(=O)c2ccc(-c3ccccn3)s2)c(OC)c1` [Example 109, 5-Pyridin-2-yl-thiophene-2-carboxylic Acid 2,4-dimethoxy-benzylamide], the “EC50 ratio (enhanced the effectiveness of monosodium glutamate)” value (compound present at 3 μM) was 8.

With `CCCC(CCC)NC(=O)c1ccc2c(c1)OC(C)O2` (stereo not shown) [Example 18, N-(heptan-4-yl)-2-methylbenzo[d][1,3]dioxole-5-carboxamide] the “EC50 ratio (enhanced the effectiveness of monosodium glutamate)” value (compound present at 0.03 μM) was 3.68.

In the case of `CC1CCCCC1NC(=O)c1ccc(Cl)c(Cl)c1` (stereo not shown) [Example E54, 3,4-dichloro-N-(2-methylcyclohexyl)benzamide], the “Umami EC50 ratio” value (Table E, compound concentration not given) is reported as 10.66.

`CCCC(CCC)NC(=O)Nc1ccccc1Cl` [Example 158] was tested, and the “EC50 ratio (enhanced the effectiveness of monosodium glutamate)” value (compound present at 1 μM) was 4.95.

With `CCCC(CCC)NC(=O)c1ccc2c(c1)OC(CC(=O)OCC)O2` (stereo not shown) [Example 19, Ethyl 2-(5-(heptan-4-ylcarbamoyl)benzo[d][1,3]dioxol-2-yl)acetate] the “EC50 ratio (enhanced the effectiveness of monosodium glutamate)” value (compound present at 3 μM) was 2.5.

For `CC(C)C[C@H](CO)NC(=O)c1ccc2c(c1)OCO2` [Example 8, (R)—N-(1-hydroxy-4-methylpentan-2-yl)benzo[d][1,3]dioxole-5-carboxamide], the “EC50 ratio (enhanced the effectiveness of monosodium glutamate)” value (compound present at 3 μM) was 2.

Reference: patent US8124121B2, “Flavors, flavor modifiers, tastants, taste enhancers, umami or sweet tastants, and/or enhancers and use thereof” (Senomyx, Inc., priority 2003, dated 2012)
